# Reference: patent US11464770B2, “Anticancer pharmaceutical composition” (NATIONAL CANCER CENTER, priority 2016, dated 2022)
# Like-named read-outs stand apart in the source and are kept apart here.
# Columns and labels:
# [1] = tested on: blood cancer cell lines (e.g. HL-60, Jurkat, Raji, Ramos, Daudi, MOLT-4); experiment: Cell based assay, cell viability (CellTiter-Glo), blood cancer cell lines; conditions: Homo sapiens
# Procedure, shortened: (§1)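 Cell lines seeded, cultured 24 hours, then exposed to compound at final 0 to 2 μM. After a further 72 hours, viability measured by ATP-detection luminescence (CellTiter-Glo).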
# [2] = tested on: cervical carcinoma cell lines; experiment: Cell based assay, cell viability (CellTiter-Glo), cervical carcinoma cell lines; conditions: Homo sapiens; HeLa cells
# [3] = tested on: pancreatic cancer cell lines (e.g. MIA PaCa-2); experiment: Cell based assay, cell viability (CellTiter-Glo), pancreatic cancer cell lines; conditions: Homo sapiens
# Procedure, shortened: as §1
# [4] = tested on: RT4: human urinary bladder transitional cell papilloma; experiment: Cell based assay, cytotoxicity in RT4 papilloma cells (selectivity); conditions: Homo sapiens, RT-4; RT4 cells
# [5] = MV4-11, blood cancer cell line MV-4-11, 72 hours, read-out: IC50, MV-4-11
# [6] = blood cancer cell line Daudi, 72 hours, read-out: IC50, Daudi
# [7] = blood cancer cell line HL-60, 72 hours, read-out: IC50, HL-60
# [8] = blood cancer cell line Jurkat, 72 hours, read-out: IC50, Jurkat
# [9] = blood cancer cell line MOLT-4, 72 hours, read-out: IC50, MOLT-4
# [10] = blood cancer cell line Raji, 72 hours, read-out: IC50, Raji
# [11] = blood cancer cell line Ramos (RA 1), 72 hours, read-out: IC50, Ramos (RA 1)
# [12] = blood cancer cell line U-937, 72 hours, read-out: IC50, U-937
# [13] = pancreatic cancer cell line AsPC-1, 72 hours, read-out: IC50, AsPC-1
# [14] = pancreatic cancer cell line BxPC-3, 72 hours, read-out: IC50, BxPC-3
# [15] = pancreatic cancer cell line CFPAC-1, 72 hours, read-out: IC50, CFPAC-1
# [16] = pancreatic cancer cell line Capan-1, 72 hours, read-out: IC50, Capan-1
# [17] = pancreatic cancer cell line Capan-2, 72 hours, read-out: IC50, Capan-2
# [18] = pancreatic cancer cell line MIA PaCa-2, 72 hours, read-out: IC50, MIA PaCa-2
# [19] = pancreatic cancer cell line PANC-1, 72 hours, read-out: IC50, PANC-1
Compound,"IC50 [1, 5]","IC50 [1, 6]","IC50 [1, 7]","IC50 [1, 8]","IC50 [1, 9]","IC50 [1, 10]","IC50 [1, 11]","IC50 [1, 12]",IC50 [2],"IC50 [3, 13]","IC50 [3, 14]","IC50 [3, 15]","IC50 [3, 16]","IC50 [3, 17]","IC50 [3, 18]","IC50 [3, 19]",IC50 [4]
"CC(=O)c1c([S+]([O-])Cc2ccc(C(C)(C)C)cc2)[nH]c2c(Br)ccc(Cl)c2c1=O (stereo not shown) [Compound 60, 3-acetyl-8-bromo-2-((4-(tert-butyl)benzyl)sulfinyl)-5-chloroquinolin-4(1H)-one]",> 2000 nM,> 2000 nM,> 2000 nM,1270 nM,1630 nM,> 2000 nM,> 2000 nM,> 2000 nM,> 10000 nM,> 2000 nM,> 2000 nM,> 10000 nM,> 2000 nM,> 2000 nM,> 2000 nM,> 2000 nM,> 10000 nM
"CC(=O)c1c([S+]([O-])Cc2ccc([S+]([O-])C(F)(F)F)cc2)[nH]c2c(Br)ccc(Cl)c2c1=O (stereo not shown) [Compound 64, 3-acetyl-8-bromo-5-chloro-2-((4-((trifluoromethyl)sulfinyl)benzyl)sulfinyl)quinolin-4(1H)-one]",1120 nM,> 2000 nM,1500 nM,1070 nM,1460 nM,1090 nM,1850 nM,> 2000 nM,> 10000 nM,> 2000 nM,> 2000 nM,> 10000 nM,> 2000 nM,> 2000 nM,1220 nM,> 2000 nM,> 10000 nM
"CC(=O)c1c([S+]([O-])Cc2ccc(C(F)(F)F)cc2)[nH]c2c(Br)ccc(Cl)c2c1=O (stereo not shown) [Compound 70, 3-acetyl-8-bromo-5-chloro-2-((4-(trifluoromethyl)benzyl)sulfinyl)quinolin-4(1H)-one]",1520 nM,1600 nM,> 2000 nM,1090 nM,1310 nM,1320 nM,1900 nM,> 2000 nM,> 10000 nM,> 2000 nM,> 2000 nM,> 10000 nM,> 2000 nM,> 2000 nM,1440 nM,> 2000 nM,> 10000 nM
"CC(=O)c1c([S+]([O-])Cc2ccc(OC(F)(F)F)cc2)[nH]c2c(Br)ccc(Cl)c2c1=O (stereo not shown) [Compound 71, 3-acetyl-8-bromo-5-chloro-2-((4-(trifluoromethoxy)benzyl)sulfinyl)quinolin-4(1H)-one]",> 2000 nM,> 2000 nM,> 2000 nM,1250 nM,1510 nM,1650 nM,> 2000 nM,> 2000 nM,> 10000 nM,> 2000 nM,> 2000 nM,> 10000 nM,> 2000 nM,> 2000 nM,1650 nM,> 2000 nM,> 10000 nM
"CC(=O)c1c([S+]([O-])Cc2ccc(C(F)(F)F)o2)[nH]c2c(Br)ccc(Cl)c2c1=O (stereo not shown) [Compound 72, 3-acetyl-8-bromo-5-chloro-2-(((5-(trifluoromethyl)furan-2-yl)methyl)sulfinyl)quinolin-4(1H)-one]",1120 nM,1600 nM,1300 nM,780 nM,1050 nM,940 nM,1370 nM,970 nM,> 2000 nM,2010 nM,> 2000 nM,> 10000 nM,> 2000 nM,> 2000 nM,1000 nM,> 2000 nM,> 10000 nM
"CC(=O)c1c([S+]([O-])Cc2ccc(C#N)cc2)[nH]c2c(Br)ccc(Cl)c2c1=O (stereo not shown) [Compound 73, 4-(((3-acetyl-8-bromo-5-chloro-4-oxo-1,4-dihydroquinolin-2-yl)sulfinyl)methyl)benzonitrile]",1310 nM,> 2000 nM,1600 nM,> 2000 nM,> 2000 nM,> 2000 nM,> 2000 nM,> 2000 nM,> 10000 nM,> 2000 nM,> 2000 nM,> 10000 nM,> 2000 nM,> 2000 nM,1650 nM,> 2000 nM,> 10000 nM
"CC(=O)c1c([S+]([O-])Cc2c(F)cccc2Cl)[nH]c2c(Br)ccc(Cl)c2c1=O (stereo not shown) [Compound 74, 3-acetyl-8-bromo-5-chloro-2-((2-chloro-6-fluorobenzyl)sulfinyl)quinolin-4(1H)-one]",1340 nM,> 2000 nM,1980 nM,> 2000 nM,1710 nM,> 2000 nM,> 2000 nM,> 2000 nM,> 10000 nM,> 2000 nM,> 2000 nM,> 10000 nM,> 2000 nM,> 2000 nM,1180 nM,> 2000 nM,> 10000 nM
"COc1cc(S(F)(F)(F)(F)F)ccc1C[S+]([O-])c1[nH]c2c(Br)ccc(Cl)c2c(=O)c1C(C)=O (stereo not shown) [Compound 75, 3-acetyl-8-bromo-5-chloro-2-((2-methoxy-4-(pentafluoro--sulfanyl)benzyl)sulfinyl)quinolin-4(1H)-one]",> 2000 nM,1260 nM,> 2000 nM,1090 nM,1280 nM,1160 nM,> 2000 nM,> 2000 nM,> 10000 nM,> 2000 nM,> 2000 nM,> 10000 nM,> 2000 nM,> 2000 nM,1320 nM,> 2000 nM,> 10000 nM
"CC(=O)c1c([S+]([O-])Cc2cc(F)cc(S(F)(F)(F)(F)F)c2)[nH]c2c(Br)ccc(Cl)c2c1=O (stereo not shown) [Compound 76, 3-acetyl-8-bromo-5-chloro-2-((3-fluoro-5-(pentafluoro--sulfanyl)benzyl)sulfinyl)quinolin-4(1H)-one]",> 2000 nM,1660 nM,> 2000 nM,1200 nM,1620 nM,1350 nM,> 2000 nM,> 2000 nM,> 10000 nM,> 2000 nM,> 2000 nM,> 10000 nM,> 2000 nM,> 2000 nM,1550 nM,> 2000 nM,> 10000 nM
"CC(=O)c1c([S+]([O-])Cc2c(F)c(F)c(F)c(F)c2F)[nH]c2c(Br)ccc(Cl)c2c1=O (stereo not shown) [Compound 78, 3-acetyl-8-bromo-5-chloro-2-(((perfluorophenyl)methyl)sulfinyl)quinolin-4(1H)-one]",> 2000 nM,> 2000 nM,> 2000 nM,> 2000 nM,> 2000 nM,> 2000 nM,1980 nM,> 2000 nM,> 10000 nM,> 2000 nM,> 2000 nM,> 10000 nM,> 2000 nM,> 2000 nM,1400 nM,> 2000 nM,> 10000 nM
"CC(=O)c1c([S+]([O-])Cc2ccc(I)cc2)[nH]c2c(Cl)ccc(Cl)c2c1=O (stereo not shown) [Compound 83, 3-acetyl-5,8-dichloro-2-((4-iodobenzyl)sulfinyl)quinolin-4(1H)-one]",> 2000 nM,1220 nM,> 2000 nM,1310 nM,1250 nM,1750 nM,1170 nM,> 2000 nM,> 10000 nM,> 2000 nM,> 2000 nM,> 10000 nM,> 2000 nM,> 2000 nM,1440 nM,> 2000 nM,> 10000 nM
